Laboratory results: patent EP1320377B1, “HLA BINDING PEPTIDES AND THEIR USES” (Epimmune Inc., priority 2000, dated 2011)

Target: B*0702 (Homo sapiens, UniProt P01889)
Assay: Class I molecular binding assay (peptide binding to purified HLA class I molecule)
Settings: binding value of the peptide for HLA allele B*0702; kind of value and unit not given

Q: Which “B*0702” value does the source give for SPALNKMFBQI [Peptide 34.0397] here?
A: 0.1800
